These results are taken from patent publication US7863279B2, “Triazolopyridine carboxamide derivatives and triazolopyrimidine carboxamide derivatives, preparation thereof and therapeutic use thereof” (sanofi-aventis, priority 2007, dated 2011).

Series [1] addresses T1, MGL (monoacyl glycerol lipase) enzyme (Mus musculus, UniProt O35678).
T1 construct: the source of MGL enzyme is a homogenate of mouse brain from which the cerebellum and the medulla oblongata have been removed; from tissue; host or cells: mouse brain homogenate (cerebellum and medulla oblongata removed)
T1 sequence (O35678 1-303): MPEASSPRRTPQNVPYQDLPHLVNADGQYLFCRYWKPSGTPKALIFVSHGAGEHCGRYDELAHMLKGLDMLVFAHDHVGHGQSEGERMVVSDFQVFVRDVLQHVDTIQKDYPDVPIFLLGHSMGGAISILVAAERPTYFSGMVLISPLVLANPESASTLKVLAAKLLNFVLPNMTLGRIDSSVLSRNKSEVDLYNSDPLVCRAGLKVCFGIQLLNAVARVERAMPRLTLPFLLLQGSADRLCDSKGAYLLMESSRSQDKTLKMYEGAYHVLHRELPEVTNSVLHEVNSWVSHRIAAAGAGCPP
In words: Radioenzymatic assay of [3H] 2-oleoyl glycerol hydrolysis by MGL. It is filed as biochemical. As to conditions: mouse brain homogenate; 20 min preincubation; 50 μM 2-OG, 20 min at ambient temperature; read-out: IC50 (concentration inhibiting 50% of the control enzyme activity of MGL). As to the method:
Tests comprised measuring the activity, in vitro, of the compounds of the invention on the MGL enzyme.
The inhibitory activity was measured in a radioenzymatic assay based on measuring the product of hydrolysis of 2-oleoyl glycerol ([^3H] 2-OG) by MGL. The products of hydrolysis of [^3H] 2-OG, labeled on the glycerol, are oleic acid and [^3H] glycerol, and the source of MGL enzyme is a homogenate of mouse brain from which the cerebellum and the medulla oblongata have been removed. The mouse brains are removed, and stored at −80° C. until they are used, or homogenized immediately for twice 5 seconds using a Precellys apparatus at 5000 rpm (Bertin) in a 10 mM Tris-HCl, 150 mM NaCl, 1 mM EDTA buffer (pH 8) at 4° C. The concentration of the homogenates is then adjusted to 7.5 μg/μl.
(§1) The dilution series of the compounds is prepared from stock solutions at 20 mM in 100% DMSO. […]
Assaying of the MGL activity is carried out in a 96-well microplate in a final reaction volume of 100 μl. […] After stirring for 10 minutes, the microplate is centrifuged for 15 minutes at 4000 g and a 30 μl aliquot of the aqueous phase containing the [^3H] glycerol produced is removed and then counted for 5 minutes by liquid scintillation (Wallac 1450 Microbeta). […]

Series [2] has as its target T2, FAAH (Fatty Acid Amide Hydrolase) enzyme (Mus musculus, UniProt O08914).
T2 construct: the source of FAAH enzyme is a homogenate of mouse brain from which the cerebellum and the medulla oblongata have been removed; from tissue; host or cells: mouse brain homogenate (cerebellum and medulla oblongata removed)
T2 sequence (O08914 1-579): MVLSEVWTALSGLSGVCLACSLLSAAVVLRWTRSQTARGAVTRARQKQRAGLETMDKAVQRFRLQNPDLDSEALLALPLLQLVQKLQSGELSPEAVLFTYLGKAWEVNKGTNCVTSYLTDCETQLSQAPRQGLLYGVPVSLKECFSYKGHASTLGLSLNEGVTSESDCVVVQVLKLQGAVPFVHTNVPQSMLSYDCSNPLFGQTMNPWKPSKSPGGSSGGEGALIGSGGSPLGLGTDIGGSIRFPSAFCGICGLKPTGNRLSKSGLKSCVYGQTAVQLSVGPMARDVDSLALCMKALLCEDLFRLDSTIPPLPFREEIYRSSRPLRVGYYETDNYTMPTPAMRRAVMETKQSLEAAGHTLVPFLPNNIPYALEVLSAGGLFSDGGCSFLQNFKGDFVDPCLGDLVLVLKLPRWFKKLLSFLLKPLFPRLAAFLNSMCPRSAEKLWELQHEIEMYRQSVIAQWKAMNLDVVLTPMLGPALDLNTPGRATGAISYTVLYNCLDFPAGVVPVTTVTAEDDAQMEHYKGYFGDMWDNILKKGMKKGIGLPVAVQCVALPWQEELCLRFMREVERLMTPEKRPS
In words: Radioenzymatic assay of [3H] anandamide hydrolysis by FAAH. Type of series: biochemical. Particulars: mouse brain homogenate; 20 min preincubation; 10 μM anandamide, 20 min at ambient temperature; read-out: IC50 (concentration inhibiting 50% of the control enzyme activity of FAAH). The method, then:
Tests comprised measuring the activity, in vitro, of the compounds of the invention on the FAAH enzyme.
The inhibitory activity was measured in a radioenzymatic assay based on measuring the product of hydrolysis (ethanolamine [1-3H]) of anandamide by FAAH (Life Science (1995), 56, 1999-2005 and Journal of Pharmacology and Experimented Therapeutics (1997), 283, 729-734). The products of hydrolysis of [^3H] anandamide, labeled on ethanolamine, are arachidonic acid and [^3H]ethanolamine, and the source of FAAH enzyme is a homogenate of mouse brain from which the cerebellum and the medulla oblongata have been removed. The mouse brains are removed, and stored at −80° C. until they are used, or homogenized immediately for twice 5 seconds using a Precellys apparatus at 5000 rpm (Bertin) in a 10 mM Tris-HCl, 150 mM NaCl, 1 mM EDTA buffer (pH 8) at 4° C. The concentration of the homogenates is then adjusted to 20 μg/μl.
as §1
Assaying of the FAAH activity is carried out in a 96-well microplate in a final reaction volume of 70 μl. […] After stirring for 10 minutes, the microplate is centrifuged for 15 minutes at 4000 g and a 30 μl aliquot of the aqueous phase containing the [^3H]ethanolamine produced is removed and then counted for 5 minutes by liquid scintillation (Wallac 1450 Microbeta).

`O=C(N1CCN(c2cccc(C(F)(F)F)c2)CC1)n1nnc2ccc(-c3cccc(Cl)c3)nc21` [compound 2, [5-(3-chlorophenyl)[1,2,3]triazolo[4,5-b]pyridin-3-yl][4-(3-trifluoromethylphenyl)piperazin-1-yl]methanone] displayed a melting point of 102 to 104 °C. Molecule `O=C(N1CCN(c2cccc(C(F)(F)F)c2)CC1)n1nnc2ccc(-c3ccccc3Cl)nc21` [compound 1, [5-(2-chlorophenyl)[1,2,3]triazolo[4,5-b]pyridin-3-yl][4-(3-trifluoromethylphenyl)piperazin-1-yl]methanone] yielded a melting point of 69 to 71 °C.

Molecule `O=C(N1CCN(c2cccc(C(F)(F)F)c2)CC1)n1nnc2ccc(-c3ccc(Cl)cc3)nc21` [Compound No. 3, [5-(4-chlorophenyl)[1,2,3]triazolo[4,5-b]pyridin-3-yl][4-(3-trifluoromethylphenyl)piperazin-1-yl]methanone] registered a melting point of 139 to 141 °C. For the same molecule, in series [1], the IC50 came to 2 nM. For the same molecule, the IC50 in series [2] came out at 2 nM. `O=C(N1CCN(c2cccc(C(F)(F)F)c2)CC1)n1nnc2ccc(-c3ccoc3)nc21` [compound 4, (5-furan-3-yl[1,2,3]triazolo[4,5-b]pyridin-3-yl)[4-(3-trifluoromethylphenyl)piperazin-1-yl]methanone] showed a melting point of 68 to 70 °C. Same read-out and setting: next, `O=C(N1CCN(c2cccc(C(F)(F)F)c2)CC1)n1nnc2ccc(-c3ccc4ccccc4c3)nc21` [compound 6, (5-naphthalen-2-yl[1,2,3]triazolo[4,5-b]pyridin-3-yl)[4-(3-trifluoromethylphenyl)piperazin-1-yl]methanone]: 90 to 92 °C; `O=C(N1CCN(c2cccc(C(F)(F)F)c2)CC1)n1nnc2ccc(-c3ccsc3)nc21` [compound 5, (5-thiophen-3-yl[1,2,3]triazolo[4,5-b]pyridin-3-yl)[4-(3-trifluoromethylphenyl)piperazin-1-yl]methanone]: 93 to 95 °C.
